Columns and labels:
Experiment in all cases: relative viability (nuclei count vs DMSO), 5 days (fraction); higher = more cells survive
[1] = compound: CC1=CC(=NN1)NC2=CC(=NC(=N2)/C=C/C3=CC=CC=C3)N4CCN(CC4)C + CC(=O)c1c(C)c2cnc(Nc3ccc(N4CCNCC4)cn3)nc2n(C2CCCC2)c1=O [Palbociclib] (partner 0.5 µM)
Outline: (§1)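 Nuclei were stained with Hoechst during a one-step fixation (final 0.05% Triton X-100, 1% formaldehyde, 1 ug/ml Hoechst) carried out 5 days after dosing, then counted on 4× images. The cells, lung cancer lines in 1536-well plates, had been dosed by pin tool the day after seeding with one drug alone or a fixed anchor-drug dose plus five library-drug doses (not always all listed) in √10 steps. Relative viability is the nuclei count in treated wells divided by that in vehicle wells, and each value is the median of duplicate plates.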

[2] = compound: CC(C)C[C@H](NC(=O)[C@H](Cc1ccccc1)NC(=O)c1cnccn1)B(O)O [Bortezomib] + Nc1ncn([C@H]2C[C@H](O)[C@@H](CO)O2)c(=O)n1 [Decitabine] (partner 2 µM)
Outline: as §1

[3] = compound: CC1=CC(=NN1)NC2=CC(=NC(=N2)/C=C/C3=CC=CC=C3)N4CCN(CC4)C + O=C(c1cc(Cc2n[nH]c(=O)c3ccccc23)ccc1F)N1CCN(C(=O)C2CC2)CC1 [Olaparib] (partner 8 µM)
Outline: as §1

[4] = compound: CC1=CC(=NN1)NC2=CC(=NC(=N2)/C=C/C3=CC=CC=C3)N4CCN(CC4)C + CC(=O)Nc1cccc(-n2c(=O)n(C3CC3)c(=O)c3c(Nc4ccc(I)cc4F)n(C)c(=O)c(C)c32)c1 [Trametinib] (partner 0.02 µM)
Outline: as §1

With HARA the relative viability ([1]; first compound 0.08 µM) was 0.296, the relative viability ([1]; first compound 0.253 µM) was 0.31 and the relative viability ([1]; first compound 0.8 µM) was 0.266. For the same cell line, the relative viability ([1]; first compound 2.53 µM) was 0.174, the relative viability ([1]; first compound 8 µM) was 0.103 and the relative viability ([2]; first compound 0.0002 µM) was 0.459. For the same cell line, the relative viability ([2]; first compound 0.000632 µM) was 0.569, the relative viability ([2]; first compound 0.002 µM) was 0.415 and the relative viability ([2]; first compound 0.006325 µM) was 0.125. For the same cell line, the relative viability ([2]; first compound 0.02 µM) was 0.124, the relative viability ([3]; first compound 0.08 µM) was 0.617 and the relative viability ([3]; first compound 0.253 µM) was 1.01. The relative viability ([3]; first compound 0.8 µM) was 0.582, the relative viability ([3]; first compound 2.53 µM) was 0.121 and the relative viability ([3]; first compound 8 µM) was 0.099. It also gave a relative viability ([4]; first compound 0.08 µM) of 0.824, a relative viability ([4]; first compound 0.253 µM) of 0.448 and a relative viability ([4]; first compound 0.8 µM) of 0.65. It also gave a relative viability ([4]; first compound 2.53 µM) of 0.148 and a relative viability ([4]; first compound 8 µM) of 0.0692.

LU99A gave a relative viability ([1]; first compound 0.08 µM) of 0.413, a relative viability ([1]; first compound 0.253 µM) of 0.461 and a relative viability ([1]; first compound 0.8 µM) of 0.393. It also gave a relative viability ([1]; first compound 2.53 µM) of 0.299, a relative viability ([1]; first compound 8 µM) of 0.146 and a relative viability ([2]; first compound 0.0002 µM) of 0.841. It also gave a relative viability ([2]; first compound 0.000632 µM) of 0.88, a relative viability ([2]; first compound 0.002 µM) of 0.885 and a relative viability ([2]; first compound 0.006325 µM) of 0.825. For the same cell line, the relative viability ([2]; first compound 0.02 µM) was 0.202, the relative viability ([3]; first compound 0.08 µM) was 0.275 and the relative viability ([3]; first compound 0.253 µM) was 0.244. It also gave a relative viability ([3]; first compound 0.8 µM) of 0.266, a relative viability ([3]; first compound 2.53 µM) of 0.182 and a relative viability ([3]; first compound 8 µM) of 0.103. The relative viability ([4]; first compound 0.08 µM) was 0.54, the relative viability ([4]; first compound 0.253 µM) was 0.311 and the relative viability ([4]; first compound 0.8 µM) was 0.532. For the same cell line, the relative viability ([4]; first compound 2.53 µM) was 0.328 and the relative viability ([4]; first compound 8 µM) was 0.165.

With NCI-H1648 the relative viability ([1]; first compound 0.08 µM) was 0.262, the relative viability ([1]; first compound 0.253 µM) was 0.25 and the relative viability ([1]; first compound 0.8 µM) was 0.238. It also gave a relative viability ([1]; first compound 2.53 µM) of 0.256, a relative viability ([1]; first compound 8 µM) of 0.271 and a relative viability ([2]; first compound 0.0002 µM) of 0.516. The relative viability ([2]; first compound 0.000632 µM) was 0.444, the relative viability ([2]; first compound 0.002 µM) was 0.366 and the relative viability ([2]; first compound 0.006325 µM) was 0.453. It also gave a relative viability ([2]; first compound 0.02 µM) of 0.292, a relative viability ([3]; first compound 0.08 µM) of 0.979 and a relative viability ([3]; first compound 0.253 µM) of 0.797. It also gave a relative viability ([3]; first compound 0.8 µM) of 0.813, a relative viability ([3]; first compound 2.53 µM) of 0.747 and a relative viability ([3]; first compound 8 µM) of 0.361. It also gave a relative viability ([4]; first compound 0.08 µM) of 0.47, a relative viability ([4]; first compound 0.253 µM) of 0.412 and a relative viability ([4]; first compound 0.8 µM) of 0.497. The relative viability ([4]; first compound 2.53 µM) was 0.435 and the relative viability ([4]; first compound 8 µM) was 0.316.

Work on LK-2 yielded a relative viability ([1]; first compound 0.08 µM) of 0.61, a relative viability ([1]; first compound 0.253 µM) of 0.691 and a relative viability ([1]; first compound 0.8 µM) of 0.547. For the same cell line, the relative viability ([1]; first compound 2.53 µM) was 0.33, the relative viability ([1]; first compound 8 µM) was 0.0792 and the relative viability ([2]; first compound 0.0002 µM) was 0.274. For the same cell line, the relative viability ([2]; first compound 0.000632 µM) was 0.384, the relative viability ([2]; first compound 0.002 µM) was 0.281 and the relative viability ([2]; first compound 0.006325 µM) was 0.227. It also gave a relative viability ([2]; first compound 0.02 µM) of 0.15, a relative viability ([3]; first compound 0.08 µM) of 0.699 and a relative viability ([3]; first compound 0.253 µM) of 0.772. The relative viability ([3]; first compound 0.8 µM) was 0.684, the relative viability ([3]; first compound 2.53 µM) was 0.29 and the relative viability ([3]; first compound 8 µM) was 0.0845. The relative viability ([4]; first compound 0.08 µM) was 0.836, the relative viability ([4]; first compound 0.253 µM) was 0.48 and the relative viability ([4]; first compound 0.8 µM) was 0.697. The relative viability ([4]; first compound 2.53 µM) was 0.417 and the relative viability ([4]; first compound 8 µM) was 0.129.

NCI-H441 showed a relative viability ([1]; first compound 0.08 µM) of 0.169, a relative viability ([1]; first compound 0.253 µM) of 0.214 and a relative viability ([1]; first compound 0.8 µM) of 0.203. It also gave a relative viability ([1]; first compound 2.53 µM) of 0.115, a relative viability ([1]; first compound 8 µM) of 0.103 and a relative viability ([2]; first compound 0.0002 µM) of 0.235. For the same cell line, the relative viability ([2]; first compound 0.000632 µM) was 0.274, the relative viability ([2]; first compound 0.002 µM) was 0.207 and the relative viability ([2]; first compound 0.006325 µM) was 0.119. For the same cell line, the relative viability ([2]; first compound 0.02 µM) was 0.109, the relative viability ([3]; first compound 0.08 µM) was 0.569 and the relative viability ([3]; first compound 0.253 µM) was 0.55. For the same cell line, the relative viability ([3]; first compound 0.8 µM) was 0.503, the relative viability ([3]; first compound 2.53 µM) was 0.401 and the relative viability ([3]; first compound 8 µM) was 0.116. For the same cell line, the relative viability ([4]; first compound 0.08 µM) was 0.434, the relative viability ([4]; first compound 0.253 µM) was 0.426 and the relative viability ([4]; first compound 0.8 µM) was 0.42. It also gave a relative viability ([4]; first compound 2.53 µM) of 0.141 and a relative viability ([4]; first compound 8 µM) of 0.0993.

For NCI-H23, the relative viability ([1]; first compound 0.08 µM) was 0.483, the relative viability ([1]; first compound 0.253 µM) was 0.505 and the relative viability ([1]; first compound 0.8 µM) was 0.409. The relative viability ([1]; first compound 2.53 µM) was 0.158, the relative viability ([1]; first compound 8 µM) was 0.123 and the relative viability ([2]; first compound 0.0002 µM) was 0.288. For the same cell line, the relative viability ([2]; first compound 0.002 µM) was 0.312, the relative viability ([2]; first compound 0.006325 µM) was 0.162 and the relative viability ([2]; first compound 0.02 µM) was 0.163. For the same cell line, the relative viability ([3]; first compound 0.08 µM) was 0.303, the relative viability ([3]; first compound 0.253 µM) was 0.325 and the relative viability ([3]; first compound 0.8 µM) was 0.224. For the same cell line, the relative viability ([3]; first compound 2.53 µM) was 0.134, the relative viability ([3]; first compound 8 µM) was 0.108 and the relative viability ([4]; first compound 0.08 µM) was 0.302. It also gave a relative viability ([4]; first compound 0.253 µM) of 0.317, a relative viability ([4]; first compound 0.8 µM) of 0.257 and a relative viability ([4]; first compound 2.53 µM) of 0.142. The relative viability ([4]; first compound 8 µM) was 0.118.

NCI-H647 was tested, and the relative viability ([1]; first compound 0.08 µM) was 0.429, the relative viability ([1]; first compound 0.253 µM) was 0.365 and the relative viability ([1]; first compound 0.8 µM) was 0.332. It also gave a relative viability ([1]; first compound 2.53 µM) of 0.115, a relative viability ([1]; first compound 8 µM) of 0.0496 and a relative viability ([2]; first compound 0.0002 µM) of 0.483. For the same cell line, the relative viability ([2]; first compound 0.000632 µM) was 0.404, the relative viability ([2]; first compound 0.002 µM) was 0.38 and the relative viability ([2]; first compound 0.006325 µM) was 0.0562. It also gave a relative viability ([2]; first compound 0.02 µM) of 0.0417, a relative viability ([3]; first compound 0.08 µM) of 0.524 and a relative viability ([3]; first compound 0.253 µM) of 0.521. For the same cell line, the relative viability ([3]; first compound 0.8 µM) was 0.493, the relative viability ([3]; first compound 2.53 µM) was 0.0425 and the relative viability ([3]; first compound 8 µM) was 0.0194. It also gave a relative viability ([4]; first compound 0.08 µM) of 0.504, a relative viability ([4]; first compound 0.253 µM) of 0.282 and a relative viability ([4]; first compound 0.8 µM) of 0.377. It also gave a relative viability ([4]; first compound 2.53 µM) of 0.109 and a relative viability ([4]; first compound 8 µM) of 0.0926.

201T showed a relative viability ([1]; first compound 0.08 µM) of 0.345, a relative viability ([1]; first compound 0.253 µM) of 0.358 and a relative viability ([1]; first compound 0.8 µM) of 0.359. It also gave a relative viability ([1]; first compound 2.53 µM) of 0.33, a relative viability ([1]; first compound 8 µM) of 0.197 and a relative viability ([2]; first compound 0.0002 µM) of 0.846. The relative viability ([2]; first compound 0.000632 µM) was 0.859, the relative viability ([2]; first compound 0.002 µM) was 0.894 and the relative viability ([2]; first compound 0.006325 µM) was 0.819. The relative viability ([2]; first compound 0.02 µM) was 0.274, the relative viability ([3]; first compound 0.08 µM) was 0.838 and the relative viability ([3]; first compound 0.253 µM) was 0.837. The relative viability ([3]; first compound 0.8 µM) was 0.828, the relative viability ([3]; first compound 2.53 µM) was 0.819 and the relative viability ([3]; first compound 8 µM) was 0.487. For the same cell line, the relative viability ([4]; first compound 0.08 µM) was 0.713, the relative viability ([4]; first compound 0.253 µM) was 0.741 and the relative viability ([4]; first compound 0.8 µM) was 0.674. The relative viability ([4]; first compound 2.53 µM) was 0.664 and the relative viability ([4]; first compound 8 µM) was 0.649.

Cell Line NCI-H1734 has a relative viability ([1]; first compound 0.08 µM) of 0.34, a relative viability ([1]; first compound 0.253 µM) of 0.278 and a relative viability ([1]; first compound 0.8 µM) of 0.313. It also gave a relative viability ([1]; first compound 2.53 µM) of 0.249, a relative viability ([1]; first compound 8 µM) of 0.13 and a relative viability ([2]; first compound 0.0002 µM) of 0.552. It also gave a relative viability ([2]; first compound 0.000632 µM) of 0.503, a relative viability ([2]; first compound 0.002 µM) of 0.462 and a relative viability ([2]; first compound 0.006325 µM) of 0.12. It also gave a relative viability ([2]; first compound 0.02 µM) of 0.0968, a relative viability ([3]; first compound 0.08 µM) of 0.562 and a relative viability ([3]; first compound 0.253 µM) of 0.645. It also gave a relative viability ([3]; first compound 0.8 µM) of 0.554, a relative viability ([3]; first compound 2.53 µM) of 0.408 and a relative viability ([3]; first compound 8 µM) of 0.118. The relative viability ([4]; first compound 0.08 µM) was 0.628, the relative viability ([4]; first compound 0.253 µM) was 0.601 and the relative viability ([4]; first compound 0.8 µM) was 0.56. For the same cell line, the relative viability ([4]; first compound 2.53 µM) was 0.41 and the relative viability ([4]; first compound 8 µM) was 0.121.

From the supplement of paper PMC10307832
